# Test results: article PMC6929321 (Clinical drug investigation, 2019)
# Where two headings read alike, the source gives them in different places.
# Tests used:
# [1] = assay type: in vivo, human
# [2] = Study P008: adverse events; assay type: in vivo, human; conditions: for AE: Abnormal dreams / AE: Diarrhea / AE: Headache / AE: Nausea / AE: Somnolence / AE: Vessel puncture site hematoma / ECI: Euphoric mood / ECI: Hypnagogic hallucination / ECI: Hypnopompic hallucination / ECI: Sleep paralysis / Subjects with ≥ 1 AE: N = 10
# [3] = in vivo; cited from earlier work
# [4] = Study P038 diltiazem sub-study: adverse events; assay type: in vivo, human; conditions: for AE: Abnormal dreams / AE: Diarrhea / AE: Headache / AE: Nausea / AE: Somnolence / AE: Vessel puncture site hematoma / ECI: Euphoric mood / ECI: Hypnagogic hallucination / ECI: Hypnopompic hallucination / ECI: Sleep paralysis / Subjects with ≥ 1 AE: Study P038 diltiazem sub-study, N = 20
# [5] = Suvorexant pharmacokinetics across both trials; assay type: in vivo; conditions: human, plasma, oral
# [6] = assay type: in vivo, human; remark: listed apart in the source
# [7] = Study P038 rifampin sub-study: adverse events; assay type: in vivo, human; conditions: for AE: Abnormal dreams / AE: Diarrhea / AE: Headache / AE: Nausea / AE: Somnolence / AE: Vessel puncture site hematoma / ECI: Euphoric mood / ECI: Hypnagogic hallucination / ECI: Hypnopompic hallucination / ECI: Sleep paralysis / Subjects with ≥ 1 AE: Study P038 rifampin sub-study, N = 10
# [8] = Safety assessments across both studies; assay type: in vivo, human
# [9] = assay type: in vivo, human; remark: listed apart in the source
# [10] = suvorexant 20 mg + diltiazem, listed as suvorexant
# [11] = suvorexant 40 mg alone, listed as suvorexant
structure (smiles),measurement,setting,value
"Cc1ccc(-n2nccn2)c(C(=O)N2CCN(c3nc4cc(Cl)ccc4o3)CC[C@H]2C)c1 [Suvorexant, suvorexant]",Decrease in suvorexant Cmax on co-administration with rifampin,"[1]; Study P038, suvorexant 40 mg, rifampin 600 mg once daily",64%
same,AUC(0-inf),"[1]; human, plasma, po, 40 mg",13.6 µM·h
same,Cmax,"[1]; human, plasma, po, 40 mg",850 nM
same,Tmax,"[1]; human, plasma, po, 40 mg",2 h
same,half-life,"[1]; human, plasma, po, 40 mg",12.9 h
same,AE: Abnormal dreams,[2]; suvorexant 4 mg + ketoconazole,0 (0) n (%)
same,AE: Diarrhea,[2]; suvorexant 4 mg + ketoconazole,0 (0) n (%)
same,AE: Headache,[2]; suvorexant 4 mg + ketoconazole,1 (10) n (%)
same,AE: Nausea,[2]; suvorexant 4 mg + ketoconazole,0 (0) n (%)
same,AE: Somnolence,[2]; suvorexant 4 mg + ketoconazole,7 (70) n (%)
same,AE: Vessel puncture site hematoma,[2]; suvorexant 4 mg + ketoconazole,0 (0) n (%)
same,ECI: Euphoric mood,[2]; suvorexant 4 mg + ketoconazole,0 (0) n (%)
same,ECI: Hypnagogic hallucination,[2]; suvorexant 4 mg + ketoconazole,0 (0) n (%)
same,ECI: Hypnopompic hallucination,[2]; suvorexant 4 mg + ketoconazole,0 (0) n (%)
same,ECI: Sleep paralysis,[2]; suvorexant 4 mg + ketoconazole,0 (0) n (%)
same,Subjects with ≥ 1 AE,[2]; suvorexant 4 mg + ketoconazole,7 (70) n (%)
same,AEs considered events of clinical interest (ECIs),[2]; suvorexant 4 mg alone or with ketoconazole,no AEs were considered to be ECIs
same,AE: Abnormal dreams,[2]; suvorexant 4 mg alone,0 (0) n (%)
same,AE: Diarrhea,[2]; suvorexant 4 mg alone,0 (0) n (%)
same,AE: Headache,[2]; suvorexant 4 mg alone,0 (0) n (%)
same,AE: Nausea,[2]; suvorexant 4 mg alone,0 (0) n (%)
same,AE: Somnolence,[2]; suvorexant 4 mg alone,6 (60) n (%)
same,AE: Vessel puncture site hematoma,[2]; suvorexant 4 mg alone,0 (0) n (%)
same,ECI: Euphoric mood,[2]; suvorexant 4 mg alone,0 (0) n (%)
same,ECI: Hypnagogic hallucination,[2]; suvorexant 4 mg alone,0 (0) n (%)
same,ECI: Hypnopompic hallucination,[2]; suvorexant 4 mg alone,0 (0) n (%)
same,ECI: Sleep paralysis,[2]; suvorexant 4 mg alone,0 (0) n (%)
same,Subjects with ≥ 1 AE,[2]; suvorexant 4 mg alone,6 (60) n (%)
same,Effect on psychomotor performance,[3],no clinically meaningful effect on psycho-motor performance
same,Reaction time (choice reaction time and simple reaction time),[3],statistically significant prolongation in reaction time
same,AE: Abnormal dreams,[4]; suvorexant 20 mg + diltiazem,1 (5) n (%)
same,AE: Diarrhea,[4]; suvorexant 20 mg + diltiazem,0 (0) n (%)
same,AE: Headache,[4]; suvorexant 20 mg + diltiazem,1 (5) n (%)
same,AE: Nausea,[4]; suvorexant 20 mg + diltiazem,0 (0) n (%)
same,AE: Somnolence,[4]; suvorexant 20 mg + diltiazem,17 (85) n (%)
same,AE: Vessel puncture site hematoma,[4]; suvorexant 20 mg + diltiazem,1 (5) n (%)
same,ECI: Euphoric mood,[4]; suvorexant 20 mg + diltiazem,1 (5) n (%)
same,ECI: Hypnagogic hallucination,[4]; suvorexant 20 mg + diltiazem,0 (0) n (%)
same,ECI: Hypnopompic hallucination,[4]; suvorexant 20 mg + diltiazem,0 (0) n (%)
same,ECI: Sleep paralysis,[4]; suvorexant 20 mg + diltiazem,0 (0) n (%)
same,Subjects with ≥ 1 AE,[4]; suvorexant 20 mg + diltiazem,18 (90) n (%)
same,ECI: Euphoric mood,[4]; [10],1 n (%)
same,Subjects with ≥ 1 AE,[4]; [10],18 (90%) n (%)
same,AE: Abnormal dreams,[4]; suvorexant 20 mg alone,1 (5) n (%)
same,AE: Diarrhea,[4]; suvorexant 20 mg alone,2 (10) n (%)
same,AE: Headache,[4]; suvorexant 20 mg alone,0 (0) n (%)
same,AE: Nausea,[4]; suvorexant 20 mg alone,2 (10) n (%)
same,AE: Somnolence,[4]; suvorexant 20 mg alone,19 (95) n (%)
same,AE: Vessel puncture site hematoma,[4]; suvorexant 20 mg alone,1 (5) n (%)
same,ECI: Euphoric mood,[4]; suvorexant 20 mg alone,0 (0) n (%)
same,ECI: Hypnagogic hallucination,[4]; suvorexant 20 mg alone,0 (0) n (%)
same,ECI: Hypnopompic hallucination,[4]; suvorexant 20 mg alone,0 (0) n (%)
same,ECI: Sleep paralysis,[4]; suvorexant 20 mg alone,0 (0) n (%)
same,Subjects with ≥ 1 AE,[4]; suvorexant 20 mg alone,20 (100) n (%)
same,Subjects with ≥ 1 AE,"[4]; suvorexant 20 mg alone, listed as suvorexant",20 (100%) n (%)
same,Duration of ECI euphoric mood,[4]; suvorexant 20 mg plus diltiazem,1 h
same,Tmax,[5],1 to 2 h
same,half-life,[5]; 40 mg,11.2 to 12.9 h
same,Prolongation (increase) in t½ on co-administration with ketoconazole,"[6]; Study P008, suvorexant 4 mg, ketoconazole 400 mg once daily",8.2 h
same,AUC(0-inf),"[6]; human, plasma, po, 4 mg",2.61 µM·h
same,Cmax,"[6]; human, plasma, po, 4 mg",280 nM
same,Tmax,"[6]; human, plasma, po, 4 mg",1 h
same,half-life,"[6]; human, plasma, po, 4 mg",11.2 h
same,AE: Abnormal dreams,[7]; suvorexant 40 mg + rifampin,3 (30) n (%)
same,AE: Diarrhea,[7]; suvorexant 40 mg + rifampin,0 (0) n (%)
same,AE: Headache,[7]; suvorexant 40 mg + rifampin,2 (20) n (%)
same,AE: Nausea,[7]; suvorexant 40 mg + rifampin,0 (0) n (%)
same,AE: Somnolence,[7]; suvorexant 40 mg + rifampin,9 (90) n (%)
same,AE: Vessel puncture site hematoma,[7]; suvorexant 40 mg + rifampin,0 (0) n (%)
same,ECI: Euphoric mood,[7]; suvorexant 40 mg + rifampin,0 (0) n (%)
same,ECI: Hypnagogic hallucination,[7]; suvorexant 40 mg + rifampin,0 (0) n (%)
same,ECI: Hypnopompic hallucination,[7]; suvorexant 40 mg + rifampin,0 (0) n (%)
same,ECI: Sleep paralysis,[7]; suvorexant 40 mg + rifampin,0 (0) n (%)
same,Subjects with ≥ 1 AE,[7]; suvorexant 40 mg + rifampin,10 (100) n (%)
same,Subjects with ≥ 1 AE,"[7]; suvorexant 40 mg + rifampin, listed as suvorexant",10 (100%) n (%)
same,AE: Abnormal dreams,[7]; suvorexant 40 mg alone,2 (20) n (%)
same,AE: Diarrhea,[7]; suvorexant 40 mg alone,0 (0) n (%)
same,AE: Headache,[7]; suvorexant 40 mg alone,1 (10) n (%)
same,AE: Nausea,[7]; suvorexant 40 mg alone,0 (0) n (%)
same,AE: Somnolence,[7]; suvorexant 40 mg alone,10 (100) n (%)
same,AE: Vessel puncture site hematoma,[7]; suvorexant 40 mg alone,3 (30) n (%)
same,ECI: Euphoric mood,[7]; suvorexant 40 mg alone,1 (10) n (%)
same,ECI: Hypnagogic hallucination,[7]; suvorexant 40 mg alone,1 (10) n (%)
same,ECI: Hypnopompic hallucination,[7]; suvorexant 40 mg alone,1 (10) n (%)
same,ECI: Sleep paralysis,[7]; suvorexant 40 mg alone,1 (10) n (%)
same,Subjects with ≥ 1 AE,[7]; suvorexant 40 mg alone,10 (100) n (%)
same,ECI: Euphoric mood,[7]; [11],1 n (%)
same,ECI: Hypnagogic hallucination,[7]; [11],1 n (%)
same,ECI: Hypnopompic hallucination,[7]; [11],1 n (%)
same,ECI: Sleep paralysis,[7]; [11],1 n (%)
same,Subjects with ≥ 1 AE,[7]; [11],10 (100%) n (%)
same,Duration of ECI hypnopompic hallucination,[7]; suvorexant 40 mg in the rifampin sub-study,1 min
same,"Changes in vital signs, laboratory safety tests, physical examination, or ECG monitoring",[8]; across both studies,no clinically meaningful changes
same,Intensity of AEs,"[8]; both trials, the moderate AE was in the P038 diltiazem sub-study","All AEs were mild in intensity, except one moderate AE of headache"
same,Serious AEs or deaths,"[8]; either trial (P008, P038), suvorexant alone or with CYP3A inhibitor/inducer",no serious AEs or deaths
same,Tolerability of single suvorexant doses,"[8]; healthy subjects, co-administered with/without a CYP3A inhibitor/inducer",generally well tolerated
same,Prolongation (increase) in t½ on co-administration with diltiazem,"[9]; Study P038 diltiazem sub-study, suvorexant 20 mg, diltiazem 240 mg once daily",3.7 h
same,AUC(0-inf),"[9]; human, plasma, po, 20 mg",7.88 µM·h
same,Cmax,"[9]; human, plasma, po, 20 mg",620 nM
same,Tmax,"[9]; human, plasma, po, 20 mg",1.5 h
same,half-life,"[9]; human, plasma, po, 20 mg",12.4 h
